From patent US20160052936A1, “SPIROINDOLINE DERIVATIVES FOR USE AS GONADOTROPIN-RELEASING HORMONE RECEPTOR ANTAGONISTS” (BAYER PHARMA AKTIENGESELLSCHAFT, priority 2013, published 2016)
Non-standard residues stand in square brackets, D forms with d. Residues, ends and D or L forms follow the SMILES beside them. dPhe(4-Cl) = N[C@H](Cc1ccc(Cl)cc1)C(=O)O; d2Nal = N[C@H](Cc1ccc2ccccc2c1)C(=O)O; dCit = NC(=O)NCCC[C@@H](N)C(=O)O; d3Pal = N[C@H](Cc1cccnc1)C(=O)O

How the values were obtained:
[1] = test system: LH level in ovariectomized rats; experiment: LH suppression in the ovariectomized rat; type: in vivo; conditions: 0.1 mg/kg i.p., 8 hours
From the text: 2.5. LH Suppression in the Ovariectomized Rat
The in vivo potency of GnRH antagonists can be quantified by a LH suppression test in ovariectomized rats. GnRH triggers the LH release from the pituitary mediated by GnRH receptors. Ovarectomy of adult female rats results in elevated levels of circulating LH due to a lack of negative feedback by gonadal steroids. GnRH antagonists suppress the release of LH and accordingly suppression of LH levels can be used to quantify the in vivo potency of GnRH antagonists.
Female adult rats were ovariectomized surgically and they were allowed to recover for at least one week. The animals received 0.5 mg/kg, 3 mg/kg or 10 mg/kg of Example 3.1 by single per oral administration. For comparison reasons a vehicle control and a positive control, 0.1 mg/kg cetrorelix (i.p.), were given once. At 0 min, 15 min, 30 min, 1 hour, 2 hours, 4 hours, 8 hours and 24 hours after compound administration blood was taken from the retro orbital plexus (n=6 per blood withdrawal) for the measurement of serum LH and serum compound levels.
As nonbinding explanatory example of compounds according to the invention FIG. 1 represents the LH level following administration of the compound according to Example 3.1, to ovariectomized adult rats. [Filled circle: Vehicle; Circle, dotted black line: Cetrorelix (0.1 mg/kg); Triangle: Example 3.1 (0.5 mg/kg); Reverse triangle: Example 3.1 (3 mg/kg); Diamond: Example 3.1 (10 mg/kg)]. Values are given as mean+standard deviation (n=6).

human GnRHR = molecular target: T1, human GnRHR (Homo sapiens, UniProt P30968); experiment: Tag-Lite receptor binding assay; conditions: Hek293 cells transiently transfected with human GnRHR; displacement of green-labelled GnRHR binding peptide; read-out: Potency in receptor binding assay using TAG-LITE technology, given as IC50
T1 construct: own knowledge: Tag-lite cells usually carry an N-terminal SNAP-tag fusion; host or cells: Hek293 cells, transiently transfected, supplied frozen
T1 sequence (P30968 1-328): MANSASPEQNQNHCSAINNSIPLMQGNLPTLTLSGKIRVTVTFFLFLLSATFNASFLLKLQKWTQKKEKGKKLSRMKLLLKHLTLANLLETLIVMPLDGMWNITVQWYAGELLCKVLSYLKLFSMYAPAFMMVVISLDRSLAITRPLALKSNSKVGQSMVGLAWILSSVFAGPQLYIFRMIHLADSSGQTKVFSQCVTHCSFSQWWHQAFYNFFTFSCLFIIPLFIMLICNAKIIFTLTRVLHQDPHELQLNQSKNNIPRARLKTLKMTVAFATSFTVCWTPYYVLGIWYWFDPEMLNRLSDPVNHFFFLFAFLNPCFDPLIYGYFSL
From the text: 2.2. Tag-Lite® Receptor Binding Assay
This binding assay is based on the fluorescence resonance energy transfer between fluorescence donor labelled human GnRHR and a green-labelled GnRHR binding peptide. Compounds interfering with the ligand binding side of the human GnRHR will replace the labelled peptide resulting in a signal decrease. The assay principle was established by Cisbio Bioassays (Bagnols-sur-Cèze Cedex, France) and further details are available on their homepage.
The assay procedure was further optimized for use in-house with reduced assay volumes. Frozen Hek293 cells, transiently transfected with human GnRHR and Terbium-labelling of the receptor, were supplied by Cisbio Bioassays as well as Tag-Lite buffer and green-labelled GnRHR binding peptide. Cells were thawed and transferred to cold Tag-Lite buffer. A volume of 8 μl of this cell suspension were added to 100 nl of a 160-fold concentrated solution of the test compound in DMSO pre-dispensed in a well of a white low-volume 384-well microtiter plate (Greiner Bio-One, Frickenhausen, Germany). The mixture was incubated for 5 min at room temperature. In the next step either 4 μl Tag-Lite buffer or as control 4 μl of an exceeding amount unlabelled binding peptide in Tag-Lite buffer were transferred to the mixture. The green-labelled GnRHR binding peptide was added in a final step at EC50 in a volume of 4 μl Tag-Lite buffer. After an incubation of 1 h at room temperature plates were measured in a microplate reader, e.g. a PHERAstar (BMG Labtechnologies, Offenburg, Germany) by using a specific optic module.
A ratio from the fluorescence emissions at 520 nm (green fluorescence) and at 490 nm (background signal of Terbium-labelled GnRHR) was calculated and the data were normalized (reaction without test compound=0% inhibition of binding of green-labelled peptide; reaction without test compound with exceeding amount unlabelled binding peptide=100% inhibition of binding of green-labelled peptide). On the same microtiter plate, compounds were tested at 10 different concentrations in the range of 12.5 μM to 0.64 nM (12.5 μM, 4.2 μM, 1.4 μM, 0.46 μM, 0.15 μM, 51 nM, 17 nM, 5.7 nM, 1.9 nM and 0.64 nM; dilution series prepared before the assay at the level of the 160-fold conc. stock solutions by serial 1:3 dilutions in 100% DMSO) in duplicate values for each concentration. By using an in-house software, the IC50 values were calculated by a 4 parameter fit.

human GnRH receptor = molecular target: T2, human GnRH receptor (Homo sapiens, UniProt P30968); experiment: IP-One HTRF assay with buserelin stimulation; type: cell-based; conditions: CHO cells stably expressing human GnRH receptor; buserelin at EC80; read-out: Potency in IP-One HTRF assay with buserelin (at EC80) stimulation, given as IC50
T2 construct: host or cells: CHO cells stably expressing human GnRH receptor (line established by Prof. Thomas Gudermann)
T2 sequence (P30968 1-328): T1 sequence (P30968 1-328)
From the text: By using homogenous time-resolved fluorescence resonance energy transfer (HTRF), the generation of one component of the GnRH-R signalling cascade can be measured. After stimulation of CHO cells stably expressing human GnRH receptor (established by Prof. Thomas Gudermann, currently University of Marburg, Germany; supplied as frozen cell aliquots by Cell Culture Services, Hamburg, Germany) with the EC80 of the GnRH agonist buserelin, Gq protein-coupled receptor signalling cascade is activated resulting in PLC-dependent cleavage of PIP2 to Inositol-1,4,5-triphosphate (IP3) and Diacylglycerol. The second messenger IP3 is degraded intracellularly to myo-inositol. Inhibition of the final degradation step from Inositol-1-phosphate (IP1) to myo-inositol by addition of lithium chloride leads to accumulation of IP1 in the cells. In cell lysates, IP1 can be detected via an antibody-based HTRF detection technology, where IP1 can displace the FRET acceptor IP1-d2 from binding by Terbium-labelled anti-IP1 antibody as donor resulting in a signal decrease. Compounds were tested for their capability of inhibiting GnRH-R activation by buserelin. For all IP-One HTRF® assays reagents of Cisbio Bioassays (IP-One Tb Jumbo kit, #62IPAPEJ; Cisbio Bioassays, Bagnols sur Cèze Cedex, France) were used.
For the assay, frozen cell aliquots were thawed and a cell suspension (3.33×10^6 cells/mL) containing IP1-d2 (dilution 1:40) was prepared and incubated at 37° C. After 1 h 3 μl of the cell suspension were added to 50 nl of a 100-fold concentrated solution of the test compound in DMSO pre-dispensed in a well of a white low-volume 384-well microtiter plate (Greiner Bio-One, Frickenhausen, Germany). […] Plates were incubated for 1 h at 37° C. and 5% carbon dioxide before the cells were lysed by adding 3 μl Terbium-labelled anti-IP1 antibody (1:40) diluted in Conjugate & Lysis buffer as supplied with the kit. After an incubation for 1 h at 22° C. to enable complete cell lysis and antibody binding to free IP1 or IP1-d2, plates were measured in an HTRF reader, e.g. a RUBYstar, PHERAstar (both BMG Labtechnologies, Offenburg, Germany) or a Viewlux (PerkinElmer LAS, Rodgau-Jügesheim, Germany).
From the fluorescence emissions at 665 nm (FRET) and at 620 nm (background signal of Terbium-antibody), the ratio (emission at 665 nm divided by emission at 620 nm) was calculated and the data were normalized (reaction without test compound=0% inhibition; all other assay components except agonist=100% inhibition). On the same microtiter plate, compounds were tested at 10 different concentrations in the range of 20 μM to 1 nM (20 μM, 6.7 μM, 2.2 μM, 0.74 μM, 0.25 μM, 82 nM, 27 nM, 9.2 nM, 3.1 nM and 1 nM; dilution series prepared before the assay at the level of the 100-fold conc. stock solutions by serial 1:3 dilutions in 100% DMSO) in duplicate values for each concentration. By using an in-house software, the IC50 values were calculated by a 4 parameter fit.
Within the meaning of the present invention the antagonist activity is reflected by the ability of a compound of the invention to antagonize human GnRH receptor stimulation in IP-One HTRF® assay at least three times the standard deviation over the background level.

Question: `CC(=O)N[C@H](Cc1ccc2ccccc2c1)C(=O)N[C@H](Cc1ccc(Cl)cc1)C(=O)N[C@H](Cc1cccnc1)C(=O)N[C@@H](CO)C(=O)N[C@@H](Cc1ccc(O)cc1)C(=O)N[C@H](CCCNC(N)=O)C(=O)N[C@@H](CC(C)C)C(=O)N[C@@H](CCCNC(=N)N)C(=O)N1CCC[C@H]1C(=O)N[C@H](C)C(N)=O` [cetrorelix, reference compound] (Ac-[d2Nal][dPhe(4-Cl)][d3Pal]SY[dCit]LRP[dA]-NH2) was tested. Which LH suppression [1] did it give?
Answer: Its LH suppression is “ca. 90%”.

Question: What does the source list for `O=C(NCc1ncc(C(F)(F)F)cc1Cl)c1ccc2c(c1)C1(CCS(=O)(=O)CC1)C(C1CC1)N2S(=O)(=O)c1cccc(OC(F)F)c1` (racemic) [Example 14, N-{[3-chloro-5-(trifluoromethyl)pyridin-2-yl]methyl}-2-cyclopropyl-1-{[3-(difluoromethoxy)phenyl]sulfonyl}-1,2,2′,3′,5′,6′-hexahydrospiro[indole-3,4′-thiopyran]-5-carboxamide 1′,1′-dioxide]?
Answer: IC50 (human GnRHR): 78.7 nM; IC50 (human GnRH receptor): 82 nM
